The record followed here is patent US9107909B2, “Materials and methods to enhance hematopoietic stem cells engraftment procedures” (priority 2008, dated 2015).

The subject of assay [1] is SKL cells. The assay can be described thus: HSPC homing to bone marrow in vivo. Details: species or system mouse. To be noted: for increase in in vivo marrow homing efficiency: pulse-exposed grafts or purified SKL cells, 16 hours post-transplant; for SKL cells homed to the marrow: vs vehicle-treated or un-manipulated cells. How it is done:
CD45.2 WBM was labeled with CFSE (Molecular Probes, Eugene, Oreg.) washed and treated on ice with either 1 microMolar dmPGE2 or vehicle. After treatment, cells were washed and 2×10^7 cells transplanted into lethally irradiated CD45.2 mice. After 16 hours, femurs and tibias were flushed, and a proportion of mouse marrow Lin^+ cells depleted using MACS microbeads (Miltenyi Biotech), stained with fluorochrome-conjugated-antibodies specific for biotin (lineage), c-kit (K), and Sca-1 (S) and the total number of CFSE^+ WBM (non lineage depleted), KL and SKL cells determined. For congenic homing studies, Lin^neg CD45.1 cells were treated on ice with 1 microMolar dmPGE2, vehicle, or PBS. After incubation, cells were washed and 2×10^6 cells transplanted into CD45.2 mice. After 16 hours, recipient bone marrow was harvested, lineage depleted, stained, and donor CD45.1 SKL cells determined. For competitive, head-to-head homing studies using sorted SKL cells, Lin^neg cells from CD45.2 and CD45.1 mice were FACS sorted, cells treated with either dmPGE2 or vehicle for 2 hours, washed and 3×10^4 CD45.1 (vehicle or dmPGE2 treated) plus 3×10^4 CD45.2 (dmPGE2 or vehicle treated) SKL cells transplanted into lethally irradiated F1 Hybrid mice. To evaluate the role of CXCR4 in homing studies, Lin^neg CD45.2 cells were treated on ice with vehicle or 1 microMolar dmPGE2 plus 10 microMolar AMD3100 (AnorMed Inc., Vancouver, BC, Canada) and 2×10^6 treated cells injected into lethally irradiated CD45.1 mice. Homed SKL cells were analyzed 16 hours post-transplant.
Irrespective of its cause a marrow niche is required for HSPC to self-renew and differentiate and it is very likely that only HSPC homing to these niches can provide long-term repopulation. Referring now to FIG. 3A, in order to assess HSPC homing, CFSE labeled whole bone marrow (WBM) CD45.2 cells were pulsed with dmPGE2 or vehicle for 2 hours on ice, washed and injected IV in lethally irradiated CD45.2 hosts. After 16 hours, total CFSE^+ cells homing to bone marrow as well as the number of homed events within the KL and SKL cell populations were quantified.
Highly purified SKL cells from both CD45.2 and CD45.1 mice were isolated by FACS sorting, treated with dmPGE2 or vehicle, and 3×10^4 vehicle-treated CD45.1 cells plus 3×10^4 dmPGE2-treated CD45.2 cells transplanted into CD45.1/CD45.2 mice. An additional cohort was concurrently transplanted with congenic strain and treatment groups were switched to test for any bias in strain homing. […] Although SKL cells are not a homogenous HSPC population, they are highly enriched for LTRC (Okada et al., 1992; Spangrude and Scollay, 1990).
To evaluate the role of CXCR4 in homing, Lineage^neg CD45.2 cells were treated with vehicle or 1 microMolardmPGE2 plus 10 microMolar AMD3100, 2×10^6 treated cells injected into lethally-irradiated CD45.1 mice and homed SKL cells recovered 16 hours post-transplant and analyzed by FACS. Referring now to FIG. 11, homing efficiency of vehicle and dmPGE2 treated cells to bone marrow in the absence and presence of 10 microMolar AMD3100. Cells were incubated with AMD3100 for 30 minutes prior to the homing assay.

For assay [2], the system named is SKL cells. In words: In vitro cell cycle analysis. It counts as cell-based, mouse. How it is done: For in vitro cell cycle analysis, Lin^neg cells were treated with either 1 microMolar dmPGE2 or vehicle for 2 hours, washed, and cultured in Stem Cell Pro Media (Stem Cell Technologies) with rmSCF (50 ng/ml) (R&D Systems, Minneapolis, Minn.), rhFlt-3 and rhTPO (100 ng/ml each) (Immunex, Seattle, Wash.). After 20 hours, cells were stained for SKL, fixed and permeabilized, and stained with 7AAD (BD Biosciences, San Jose, Calif.). The proportion of SKL cells in S+G2/M phase was determined by measuring DNA content by FACS. For in vivo cell cycle analysis, CD45.2 mice were lethally irradiated and transplanted with 5×10^6 Lin^neg cells from CD45.1 mice treated with either 1 microMolar dmPGE2 or vehicle for 2 hours. At the time of transplant, recipient mice received 1 milligram/mL BrdU (Sigma Aldrich, St. Louis, Mo.) in drinking water and 1 mg per mouse BrdU I.P. After 16 hours, recipient marrow was isolated, lineage depleted, and stained for CD45.1, SKL and BrdU. The proportion of homed (CD45.1^+) SKL cells that were BrdU^+ was determined by FACS in individual mice.
Survivin regulates HSPC entry into and progression through cell cycle. Furthermore, β-catenin, implicated in HSPC proliferation and self-renewal, lies downstream of EP receptor pathways. […] To test this hypothesis, the cell cycle status of SKL cells pulsed with dmPGE2 or vehicle in vitro was analyzed. Referring now to FIG. 6A, pulse-exposure to dmPGE2 increased DNA content in SKL cells, an indication of increased cell cycling (left panels, upper right quadrant). In 3 experiments, 60% more SKL cells were in S+G2/M phase of the cell cycle after dmPGE2 treatment compared to controls (FIG. 6A right panel).
Lineage^neg cells were treated with either vehicle or 1 microMolar dmPGE2 for 2 hours, washed and cultured in media with rmSCF, rhFlt3 and rhTpo. After 20 hours cells were stained for SKL and Hoechst-33342 and Pyronin-Y. The proportion of SKL cells in cell cycle were measured by FACS. Referring now to FIG. 12, representative flow plot showing cell cycle distribution of gated SKL cells and combined data for fold increase in cell cycle for dmPGE2-treated cells compared to vehicle control from 3 experiments, Mean±SEM, n=9 mice, each assayed individually. […]
Referring now to FIG. 8, table summarizing data collected using Lin^neg bone marrow cells treated with either 1 microMolar dmPGE2 or vehicle for 2 hours and cultured in the presence of growth factors (50 ng/ml rmSCF, 100 ng/ml each of rhFlt-3 and rhTPO) for 20 hours, were stained for SLAM SKL, Hoechst-33342 and Pyronin-Y and the proportion of SLAM SKL cells in G0, G1, S and G2/M phase of the cell cycle determined by quantitation of the DNA and the RNA content by FACS. Data are Mean±SEM for n=9 mice, each assayed individually. ^(b)Percentage of cells in G1+S+G2M; Combined data for n=9 mice. ^(*^)P<0.05 compared to vehicle control.

Entries after “also recorded” stand apart in the source; their conditions may differ.

As to `CCCCC[C@H](O)/C=C/[C@H]1[C@H](O)CC(=O)[C@@H]1C/C=C\CCCC(=O)O` [PGE2, Prostaglandin E2], the “increase in in vivo marrow homing efficiency” value in the assay with SKL cells [1] is roughly 2 fold. Further, the “SKL cells homed to the marrow” value in the assay with SKL cells [1] (16 hours) is listed as “higher proportion”. Further, the “cell cycle rate of CD150+48− (SLAM) SKL cells” value in the assay with SKL cells [2] (in vitro, 1 microMolar 2 hours, 20 hours culture) is on record as “Increases the Cell Cycle Rate”. The “proportion of SKL cells actively in cell cycle” value in the assay on SKL cells [2] (in vitro, within 24 hours post-treatment) is listed as “increase”. Further, the “increase in proportion of HSPC in cell cycle / HSPC cell cycle activity” value in the assay with SKL cells [2] (pulse exposure) is reported as roughly 2 fold.
Take `CCCCC(C)(C)[C@H](O)/C=C/[C@H]1[C@H](O)CC(=O)[C@@H]1C/C=C\CCCC(=O)O` [dmPGE2, 16,16-dimethyl prostaglandin E2]: the “increase in in vivo marrow homing efficiency” value in the assay with SKL cells [1] was determined as 2 fold. Further, the “percentage of CFSE+ cells homing to the marrow, total WBM cells” value in the assay with SKL cells [1] (vs vehicle-treated cells, 16 hours) is recorded as “No difference”. In the assay on SKL cells [1] (16 hours), the “SKL cells homed to the marrow” value is recorded as “significantly more SKL cells homed; also recorded: significantly greater percentage of SKL cells”. Moreover, the “cell cycle rate of KL or Lin neg cells” value in the assay with SKL cells [2] (in vitro) is “No significant effect”. The “more SKL cells in S+G2/M phase of the cell cycle” value in the assay with SKL cells [2] (in vitro, 3 experiments, vs controls) is recorded as 60%.
